Data published in patent US11453640B2, “Small molecules for disrupting the super elongation complex and inhibiting transcription elongation for cancer therapy” (NORTHWESTERN UNIVERSITY, priority 2018, dated 2022).

Molecular target: T1, AFF4-CCNT1 interaction (GST-CCNT1 AA 1-300 and biotin-AFF4 peptide AA 32-67) (Homo sapiens, UniProt O60563)
T1 construct: Recombinant GST-CCNT1 (1-300), which was purified by Glutathione Superflow Agarose from Rosetta cells; VCPBIO (peptide synthesis) Addgene P#432; host or cells: Rosetta cells
T1 sequence (O60563 1-300): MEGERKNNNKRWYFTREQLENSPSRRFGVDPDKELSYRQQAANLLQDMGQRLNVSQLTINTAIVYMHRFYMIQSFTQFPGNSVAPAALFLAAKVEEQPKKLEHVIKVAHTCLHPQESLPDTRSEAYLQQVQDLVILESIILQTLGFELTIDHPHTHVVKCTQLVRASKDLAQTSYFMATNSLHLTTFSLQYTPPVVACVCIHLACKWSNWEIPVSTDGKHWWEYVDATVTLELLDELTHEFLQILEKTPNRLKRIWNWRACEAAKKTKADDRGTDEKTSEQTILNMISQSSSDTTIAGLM
Experiment: AlphaLISA assay of the AFF4-CCNT1 interaction (Alpha Screen)
Assay type: binding
From the text: FIG. 1. Peptidomimetic identification of disruptors of the AFF4-CCNT1 interaction within the Super Elongation Complex. (A) Schematic for the identification of small molecule inhibitors of the AFF4-CCNT1 interaction using in silico high-throughput screening. Compounds from the ZINC database were docked with the AFF4-CCNT1 structure (4IMY) using a three-tier glide-docking algorithm, which led to 40 candidates. Residues forming the deep binding pocket of CCNT1 are labeled orange and residues of the AFF4 peptide are labeled red. (B) Validation screening identified KL-1 as a potential SEC disruptor using AlphaLISA screening. GST-CCNT1 (AA 1-300) and biotin-labeled AFF4 peptide (AA 32-67) were used to measure the AFF4-CCNT1 interaction with the AlphaLISA assay. (C) Similarity search for KL-1-like molecules identified KL-2. The peptidomimetic potential of KL-1 and KL-2 can be seen by overlaying them with the AFF4 peptide LFAEP structure. (D) Dose-dependent inhibition of KL-1 and KL-2 on AFF4-CCNT1 interaction. The Ki constants of both compounds were measured with the AlphaLISA assays. (E) Treatment of HEK293T cells with KL-1 and KL-2 results in reduced protein levels of SEC components AFF1 and AFF4 but not CDK9 or CCNT1. HEK293T cells were treated with 20 μM of SEC inhibitors KL-1 or KL-2 for 6 hr. 5 μl, 10 and 20 μl cell lysates were loaded and the protein levels of AFF1, AFF4, CCNT1, CDK9 and Tubulin (load control) were determined by western blotting.
FIG. 8, related to FIG. 1. Peptidomimetic identification of disruptors of the AFF4-CCNT1 interaction within the Super Elongation Complex. (A) Schematic of AlphaLISA assay of the AFF4-CCNT1 interaction. Anti-GST AlphaLISA acceptor beads and AlphaScreen streptavidin donor beads (Perkin Elmer) were used to detect the interaction of GST-CCNT1 (AA1-300) and biotin-AFF4 (AA32-67). (B-C) Optimization of the AlphaLISA assay with various biotin-AFF4 peptide and GST-CCNT1 concentrations. No CCNT1 (B) and mutant AFF4 (C) were used as negative controls. Data are represented as Mean+/−SD. (D) Scheme for chemical synthesis of SEC inhibitors KL-1 and KL-2. Reagents and conditions: a. LDA, THF, −78° C., 15 min., then diethyl oxalate, −78° C. to room temperature. b. NaOH, THF/H2O, room temperature, 15 min. c. EEDQ, 5-chloro-2-methylaniline, THF, room temperature, 24 hr. […] 293T cells were treated with 20 μM of KL-1 or KL-2 for 6 hr, and the protein levels of BRD2, BRD4, Pol II (RPB1), SPT5, MED26, MYC, HSP90 (load control) and Tubulin (load control) were measured by western blotting. (F) Treatment of HCT-116 cells with KL-1 and KL-2 reduced protein levels of SEC components AFF1 and AFF4 but not CDK9 or CCNT1. HCT-116 cells were treated with 20 μM of KL-1 or KL-2 for 6 hr, and the protein levels of AFF1, AFF4, CCNT1, CDK9 and Tubulin (load control) were determined by western blotting. (G-H) Treating cells with KL-1 and KL-2 results in reduced levels of AFF 1 and AFF4. FLAG-AFF1 (G) and FLAG-AFF4 (H) were expressed under the Tet-inducible promoter in HEK293T cells. Cells were treated with 20 μM of the indicated inhibitors for 6 hr for western blotting. […] RNA-seq was performed in HEK293T cells treated for 12 hr with 20 μM of the indicated inhibitors. The log2CPM (counts per million) of the SEC subunits were calculated with HTseq. KL-1 and KL-2 had no significant effects on CCNT1, CDK9 and AFF1 expression, but modest increases in the mRNA levels of AFF4 and ELL2 were observed (n=3). Unpaired two-way ANOVA was used for the statistical testes. **,p<0.05, ***,p<0.001.
To test if candidate compounds can disrupt the AFF4-CCNT1 interaction in vitro, we established and optimized a bead-based AlphaLISA assay with recombinant CCNT1 (1-300) protein and synthesized Biotin-AFF4 peptides (AA 32-67) (FIGS. 8A, 8B and 8C).
AlphaLISA Assay. The interaction of CCNT1-AFF4 was measured by Perkin Elmer's bead-based AlphaLISA assays. […]

Question: What does the source list for `COc1cccc(C(=O)CC(=O)C(=O)Nc2cc(Cl)ccc2C)c1` [KL-1, N-(5-chloro-2-methylphenyl)-4-oxo-4-(3-methoxyphenyl)-2-oxobutanamide]?
Answer: Ki (AlphaLISA, IC50 converted to Ki with the Cheng and Prusoff equation, read-out: Ki, inhibition of the AFF4-CCNT1 interaction): 3.48 µM; disruption of the AFF4-CCNT1 interaction (tested at 20 μM): could inhibit the interaction of AFF4-CCNT1
